According to ChEMBL document CHEMBL1129676, “1-substituted 4-aryl-5-pyridinylimidazoles: a new class of cytokine suppressive drugs with low 5-lipoxygenase and cyclooxygenase inhibitory potency” (J Med Chem, 1996):

Key:
MAP kinase p38 = MAP kinase p38 (Homo sapiens, UniProt O15264+Q15759+Q16539+P53778); experiment: In vitro inhibitory concentration against radioligand [3H]SB-202190 binding to CSBP kinase in human monocytic cell line, THP-1
Mus musculus = experiment: In vivo inhibition of LPS-induced TNF production in mice 50 mg/Kg.; assay type: functional
[1] = biological target: T1, Polyunsaturated fatty acid 5-lipoxygenase (Rattus norvegicus, UniProt P12527); experiment: Inhibitory concentration against 5-lipoxygenase in rat RBL-1 cells; assay type: cell-based
T1 sequence (P12527 whole entry): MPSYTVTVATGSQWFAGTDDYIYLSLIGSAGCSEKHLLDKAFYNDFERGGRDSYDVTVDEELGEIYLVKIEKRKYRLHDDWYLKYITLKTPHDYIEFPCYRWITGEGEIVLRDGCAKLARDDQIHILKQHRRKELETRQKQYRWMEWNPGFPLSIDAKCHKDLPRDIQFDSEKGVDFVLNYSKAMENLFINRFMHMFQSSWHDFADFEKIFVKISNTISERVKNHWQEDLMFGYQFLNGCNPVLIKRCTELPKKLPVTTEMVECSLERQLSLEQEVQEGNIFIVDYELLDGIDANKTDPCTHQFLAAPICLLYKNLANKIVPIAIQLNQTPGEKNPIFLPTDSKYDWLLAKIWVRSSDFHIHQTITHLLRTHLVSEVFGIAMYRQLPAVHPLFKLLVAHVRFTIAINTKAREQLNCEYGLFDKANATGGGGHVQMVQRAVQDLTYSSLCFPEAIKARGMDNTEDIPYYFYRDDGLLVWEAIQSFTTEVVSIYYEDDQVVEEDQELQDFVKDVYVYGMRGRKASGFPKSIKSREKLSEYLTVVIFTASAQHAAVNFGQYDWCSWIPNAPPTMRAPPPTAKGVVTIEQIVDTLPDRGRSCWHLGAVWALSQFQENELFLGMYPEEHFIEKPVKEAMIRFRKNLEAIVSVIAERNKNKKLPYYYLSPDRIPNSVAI

[2] = biological target: T2, Prostaglandin G/H synthase 1 (Ovis aries, UniProt P05979); experiment: Inhibitory concentration against Prostaglandin H2 synthase 1 (PGHS-1) from ram seminal vesicle
T2 sequence (P05979 whole entry): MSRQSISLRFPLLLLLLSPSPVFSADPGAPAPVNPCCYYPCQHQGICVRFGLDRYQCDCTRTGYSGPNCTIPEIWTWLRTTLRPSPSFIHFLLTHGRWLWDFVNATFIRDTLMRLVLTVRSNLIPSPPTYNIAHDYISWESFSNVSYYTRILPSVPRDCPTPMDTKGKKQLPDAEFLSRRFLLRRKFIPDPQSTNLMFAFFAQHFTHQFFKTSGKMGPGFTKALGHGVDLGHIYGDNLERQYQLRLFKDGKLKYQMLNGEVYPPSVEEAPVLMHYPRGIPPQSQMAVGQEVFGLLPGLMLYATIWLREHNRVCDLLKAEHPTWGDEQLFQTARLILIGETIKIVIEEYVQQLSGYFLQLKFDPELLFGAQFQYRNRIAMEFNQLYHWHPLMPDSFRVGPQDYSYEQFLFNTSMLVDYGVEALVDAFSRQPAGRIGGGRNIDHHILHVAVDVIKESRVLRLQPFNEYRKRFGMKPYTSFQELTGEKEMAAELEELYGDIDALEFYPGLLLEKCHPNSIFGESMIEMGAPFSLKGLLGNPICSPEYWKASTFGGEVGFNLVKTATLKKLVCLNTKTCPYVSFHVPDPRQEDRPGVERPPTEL

| Structure (SMILES) | IC50 (MAP kinase p38) [nM] | Change (Mus musculus) [%] | IC50 [1] [nM] | IC50 [2] [nM] |
| --- | --- | --- | --- | --- |
| CN(CCCn1cnc(-c2ccc(F)cc2)c1-c1ccncc1)Cc1ccccc1 | 130 | -28 | – | – |
| C[S+]([O-])c1cccc(-n2cnc(-c3ccc(F)cc3)c2-c2ccncc2)c1 (stereo not drawn) | 520 | -20 | – | – |
| Fc1ccc(-c2ncn(CCCN3CCOCC3)c2-c2ccnc3ccccc23)cc1 | 9000 | -19 | – | – |
| NCCCn1cnc(-c2ccc(F)cc2)c1-c1ccncc1 | 150 | – | – | – |
| Fc1ccc(-c2ncn(CCCOc3ccccc3)c2-c2ccncc2)cc1 | 70 | -14 | – | – |
| Clc1cccc(-c2ncn(CCCN3CCOCC3)c2-c2ccncc2)c1 | 210 | -49 | – | – |
| Cc1cc(-c2c(-c3ccc(F)cc3)ncn2CCCN2CCOCC2)ccn1 | 3050 | -37 | – | – |
| Fc1ccc(-c2ncn(CCCN3CCCC3)c2-c2ccncc2)cc1 | 340 | -17 | – | – |
| Fc1ccc(-c2nc3n(c2-c2ccncc2)CCS3)cc1 | – | – | 10000 | 5400 |
| C[S+]([O-])c1ccccc1-n1cnc(-c2ccc(F)cc2)c1-c1ccncc1 (stereo not drawn) | 710 | 40 | – | – |
| Nc1cc(-c2c(-c3ccc(F)cc3)ncn2CCCN2CCOCC2)ccn1 | 1180 | -38 | – | – |
| C[S+]([O-])CCCn1cnc(-c2ccc(F)cc2)c1-c1ccncc1 (stereo not drawn) | 1400 | -43 | – | – |
| CSc1ccc(-n2cnc(-c3ccc(F)cc3)c2-c2ccncc2)cc1 | 1470 | -20 | – | – |
| CCN(CC)CCCn1cnc(-c2ccc(F)cc2)c1-c1ccncc1 | 270 | -21 | – | – |
| FC(F)(F)c1cc(-c2ncn(CCCN3CCOCC3)c2-c2ccncc2)cc(C(F)(F)F)c1 | 114000 | – | – | – |
| [O-][S+](CCCn1cnc(-c2ccc(F)cc2)c1-c1ccncc1)c1ccccc1 (stereo not drawn) | 630 | – | – | – |
| Fc1ccc(-c2nc[nH]c2-c2ccncc2)cc1 | 210 | -82 | > 100000 | > 100000 |
| C[S+]([O-])c1ccc(-n2cnc(-c3ccc(F)cc3)c2-c2ccncc2)cc1 (stereo not drawn) | 750 | – | – | – |
| CSc1cccc(-c2ncn(CCCN3CCOCC3)c2-c2ccncc2)c1 | 290 | -10 | – | – |
| Clc1ccc(-c2ncn(CCCN3CCOCC3)c2-c2ccncc2)cc1Cl | 320 | -73 | > 100000 | > 100000 |
| Fc1ccc(-c2ncn(CCCCN3CCOCC3)c2-c2ccncc2)cc1 | 480 | -40 | – | – |
| CC(C)n1cnc(-c2ccc(F)cc2)c1-c1ccncc1 | 120 | -56 | – | – |
| FC(F)(F)c1ccc(-c2ncn(CCCN3CCOCC3)c2-c2ccncc2)cc1 | 2980 | – | – | – |
| COC(=O)CCCn1cnc(-c2ccc(F)cc2)c1-c1ccncc1 | 290 | -33 | – | – |

| Structure (SMILES) | IC50 (MAP kinase p38) [nM] | Change (Mus musculus) [%] | IC50 [1] [nM] | IC50 [2] [nM] |
| --- | --- | --- | --- | --- |
| CSc1cccc(-n2cnc(-c3ccc(F)cc3)c2-c2ccncc2)c1 | 120 | -23 | – | – |
| Fc1ccc(-c2ncn(CCCN3CCOCC3)c2-c2ccncc2)cc1 [SB-210313] | – | -55 | > 100000 | – |
| CSc1ccc(-c2nc3n(c2-c2ccncc2)CCC3)cc1 | – | – | 3000 | 100000 |
| O=C(O)CCCn1cnc(-c2ccc(F)cc2)c1-c1ccncc1 | 3830 | -47 | – | – |
| C[S+]([O-])c1cccc(-c2ncn(CCCN3CCOCC3)c2-c2ccncc2)c1 (stereo not drawn) | 4950 | – | – | – |
| Fc1ccc(-c2ncn(C3CC3)c2-c2ccncc2)cc1 | 80 | -79 | 60000 | 16000 |
| Fc1ccc(-c2ncn(CCCN3CCCCC3)c2-c2ccncc2)cc1 | 1170 | -26 | – | – |
| CC(C)(C)n1cnc(-c2ccc(F)cc2)c1-c1ccncc1 | 4740 | -35 | – | – |
| Cc1cc(-c2c(-c3ccc(F)cc3)ncn2CCCN2CCOCC2)cc(C)n1 | 25000 | – | – | – |
| Fc1ccc(-c2ncn(CCCN3CCOCC3)c2-c2cccnc2)cc1 | 64700 | – | – | – |
| C[S+]([O-])c1ccc(-c2nc(-c3ccc(F)cc3)c(-c3ccncc3)[nH]2)cc1 (stereo not drawn) [SB-203580] | – | -83 | – | – |
| FC(F)(F)c1cccc(-c2ncn(CCCN3CCOCC3)c2-c2ccncc2)c1 | 460 | – | – | – |
| O=S(=O)(CCCn1cnc(-c2ccc(F)cc2)c1-c1ccncc1)c1ccccc1 | 1810 | -42 | – | – |
| Fc1ccc(-c2ncn(CCCN3CCOCC3)c2-c2ccnc(Cl)c2)cc1 | 1890 | – | – | – |
| CS(=O)(=O)CCCn1cnc(-c2ccc(F)cc2)c1-c1ccncc1 | 510 | – | – | – |
| Fc1ccc(-c2ncn(CCCSc3ccccc3)c2-c2ccncc2)cc1 | 80 | -42 | – | – |
| Cc1cc(-c2[nH]c(-c3ccc([S+](C)[O-])cc3)nc2-c2cccc(F)c2)ccn1 (stereo not drawn) | 370 | -64 | – | – |
| CSCCCn1cnc(-c2ccc(F)cc2)c1-c1ccncc1 | 190 | -49 | – | – |
| Fc1ccc(-c2ncn(CCN3CCOCC3)c2-c2ccncc2)cc1 | 760 | -25 | – | – |
| Fc1ccc(-c2ncn(CCCN3CCOCC3)c2-c2ccccn2)cc1 | 6460 | – | – | – |
| CCOCCCn1cnc(-c2ccc(F)cc2)c1-c1ccncc1 | 100 | -29 | – | – |
| Fc1ccc(-c2ncn(CCCNCc3ccccc3)c2-c2ccncc2)cc1 | 70 | -43 | – | – |
| CSc1ccc(-c2nc(-c3cccc(F)c3)c(-c3ccncc3)[nH]2)cc1 | 340 | – | – | – |
| CSc1ccccc1-n1cnc(-c2ccc(F)cc2)c1-c1ccncc1 | 80 | 29 | – | – |
